Results as given in EPA's ToxValDB 9.5.
Where “and” joins values, the source holds several entries; their conditions need not be identical. Equal entries are not always repeated.

Tests used:
Rattus norvegicus [1] = details: for LD50 / LC50: acute
Rattus norvegicus [2] = test: LD0; higher = less toxic; details: acute
Rattus norvegicus [3] = details: oral
Oryctolagus sp. = details: acute, New Zealand; for LD50: dermal, occlusive
Mus musculus = details: acute; for LD50: injection
Canidae [4] = details: oral, Beagle
Rattus norvegicus [5] = details: chronic; duration: 104 weeks; oral; diet; Liver: Increased weight
Canidae [6] = details: chronic, oral, diet, Dog Other
Rattus norvegicus [7] = details: Hershberger; duration: 10 days; oral; gavage; Sprague-Dawley; active + Negative + Antiandrogenic + anti-androgenic + significant increase in liver wt at 100 / decrease in AST wt and serum Testosterone …
Canidae [8] = details: chronic; oral; M/F; Dog Other; reduced erythrocyte counts
Canidae [9] = details: chronic; duration: 1 years; oral; diet; M/F; Beagle; Increased plasma cholesterol (males)
[10] = subchronic, duration: 13 weeks, oral, diet
[11] = subchronic, duration: 13 weeks, diet
[12] = subchronic, duration: 13 weeks, diet, F, Crl
[13] = subchronic, duration: 13 weeks, diet, M, Crl

O=S(=O)([O-])c1cc(Nc2nc(Nc3ccccc3)nc(N3CCOCC3)n2)ccc1C=Cc1ccc(Nc2nc(Nc3ccccc3)nc(N3CCOCC3)n2)cc1S(=O)(=O)[O-].[Na+].[Na+]
LD50 (Rattus norvegicus [1]; oral, Sprague-Dawley): 7000 mg/kg | LD50 (Rattus norvegicus [1]; oral, gavage, Sprague-Dawley): > 5000 mg/kg | NOAEL (Rattus norvegicus [1]; chronic, duration: 24 months, oral, diet, F, Wistar): 791 mg/kg-day | NOAEL (Rattus norvegicus [1]; chronic, duration: 24 months, oral, diet, M, Wistar): 524 mg/kg-day | NOAEL (Rattus norvegicus [1]; short-term, duration: 14 days, oral, gavage, F, Wistar): 1000 mg/kg-day | NOAEL (Rattus norvegicus [1]; short-term, duration: 14 days, oral, gavage, M, Wistar): 1000 mg/kg-day | LD0 (Rattus norvegicus [2]; dermal, semiocclusive, Wistar): > 2000 mg/kg | NOAEL (Rattus norvegicus [3]; short-term, duration: 28 days, gavage, Wistar): 825 mg/kg-day

CC(O)CN(CC(C)O)c1nc(Nc2ccc(S(=O)(=O)[O-])cc2)nc(Nc2ccc(/C=C/c3ccc(Nc4nc(Nc5ccc(S(=O)(=O)[O-])cc5)nc(N(CC(C)O)CC(C)O)n4)cc3S(=O)(=O)[O-])c(S(=O)(=O)[O-])c2)n1.[Na+].[Na+].[Na+].[Na+] (centres undefined)
LC50 (Oryctolagus sp.; oral): > 1000 mg/kg | LC50 (Mus musculus; oral, NMRI): > 1000 mg/kg | LD50 (Rattus norvegicus [1]; oral, Wistar): > 2500 mg/kg | NOAEL (Rattus norvegicus [1]; short-term, duration: 5 days, oral, gavage, F, Wistar): 1020 mg/kg-day | NOAEL (Rattus norvegicus [1]; short-term, duration: 5 days, oral, gavage, M, Wistar): 1020 mg/kg-day | NOAEL (Rattus norvegicus [1]; subchronic, duration: 13 weeks, oral, gavage, F, Wistar): 300 mg/kg-day | NOAEL (Rattus norvegicus [1]; subchronic, duration: 13 weeks, oral, gavage, M, Wistar): 300 mg/kg-day | LC50 (Canidae [4]; acute): > 500 mg/kg

CCCCCCO [1-Hexanol]
LD50 (Mus musculus; intravenous): 100 mg/kg | LC50 (Rattus norvegicus [1]; inhalation): > 21 µg/mL | NOAEL (Rattus norvegicus [1]; developmental, inhalation, Sprague-Dawley): > 3500 mg/m3 | NOAEL (Rattus norvegicus [1]; reproduction developmental, inhalation, F, Sprague-Dawley): > 3500 mg/m3 | LOAEL (% diet) (Rattus norvegicus [1]; [10]): 1 | NOAEL (% diet) (Rattus norvegicus [1]; [10]): > 0.5 | LOAEL (% diet) (Canidae [4]; [11]): 1 | NOAEL (% diet) (Canidae [4]; [11]): > 0.5 | NOAEL (Rattus norvegicus [3]; [12]): 1240 mg/kg-day | NOEL (Rattus norvegicus [3]; [12]): 1240 mg/kg-day | NOAEL (Rattus norvegicus [3]; [13]): 1130 mg/kg-day | NOEL (Rattus norvegicus [3]; [13]): 1130 mg/kg-day

CC(C)CC(C)(O)C#CC(C)(O)CC(C)C (centres undefined) [2,4,7,9-Tetramethyl-5-decyne-4,7-diol]
LD50 (Oryctolagus sp.): > 1000 mg/kg | LC50 (Rattus norvegicus [1]; Inhalation): > 20 µg/mL | LD50 (Rattus norvegicus [1]; dermal): > 2000 mg/kg | LD50 (Rattus norvegicus [1]; oral, Sprague-Dawley): > 500 mg/kg | NOAEL (Rattus norvegicus [1]; reproduction developmental, oral, diet, Sprague-Dawley, generation: F0): 500 mg/kg-day | NOAEL (Rattus norvegicus [1]; reproduction developmental, oral, diet, Sprague-Dawley, generation: F1): 500 mg/kg-day | NOAEL (Rattus norvegicus [1]; short-term, duration: 28 days, oral, diet): 5000 ppm | LOAEL (Canidae [4]; chronic, duration: 130 days): 200 mg/kg-day

CCC(C#N)CC#N (centres undefined) [2-Ethylbutanedinitrile]
LD0 (Rattus norvegicus [2]; oral, gavage, Sprague-Dawley): < 500 mg/kg

CC(COc1ccc(C(C)(C)C)cc1)OS(=O)OCCCl (centres undefined) [Aramite]
NOAEL (Rattus norvegicus [5]): 7.8 mg/kg-day | NOAEL (Canidae [6]; duration: 52 weeks, Liver: Degeneration): 10 mg/kg-day

CCCCN(CC)c1c([N+](=O)[O-])cc(C(F)(F)F)cc1[N+](=O)[O-] [Benfluralin]
LOEL (Rattus norvegicus [7]): 400 mg/kg-day and 750 mg/kg-day | NOEL (Rattus norvegicus [7]): 100 mg/kg-day and 250 mg/kg-day | NOAEL (Canidae [6]; duration: 1 years, Erythrocytes: Decreased count): 25 mg/kg-day | LOAEL (Canidae [8]): 125 mg/kg-day | NOAEL (Canidae [8]): 25 mg/kg-day

SCc1ccccc1 [Benzenemethanethiol]
LC50 (Mus musculus; inhalation, Swiss): 904 mg/m3 | LD50 (Rattus norvegicus [1]; injection, Intraperitoneal, Wistar): 373 mg/kg | LD50 (Rattus norvegicus [1]; oral, gavage, Wistar): 493 mg/kg | LD0 (Rattus norvegicus [2]; dermal, semiocclusive, Sprague-Dawley): ≥ 2000 mg/kg

CCNc1nc(Cl)nc(NC(C)(C)C#N)n1 [Cyanazine]
NOEL (Canidae [6]; duration: 1 years, Blood: Altered clinical chemistry parameters + Blood: Increased platelet count + Whole body: Decreased weight): 0.625 mg/kg-day

ON=C1CCCCC1 [Cyclohexanone oxime]
LD50 (Oryctolagus sp.): > 5000 mg/kg | LD50 (Mus musculus; Intraperitoneal): 250 mg/kg | LD0 (Rattus norvegicus [2]; oral, gavage, Fischer 344): > 300 mg/kg

N#Cc1c(N)nc(NC2CC2)nc1N [Dicyclanil]
LOEL (Canidae [9]): 4.4 mg/kg-day | NOEL (Canidae [9]): 0.71 mg/kg-day
